Laboratory results: patent publication US12097232B1, “Method of preventing cadmium-induced renal toxicity using a plant product derived from Achillea millefolium L” (KING FAISAL UNIVERSITY, priority 2024, dated 2024)

Assays:
Format in all cases: in vivo, Wistar rats
[1] = Kidney weight in CdCl2-induced renal toxicity rats
Procedure: (§1) Thirty-two adult male Wistar rats (8-9 weeks old, weighing, 160-180 g) were purchased from the Experimental Animal Research Centre, King Saud University, Riyadh, KSA.
All the animals were maintained with typical laboratory food and water ad libitum in a ventilated cage system (12 h light/dark cycle, 20.3-23.1° C.) throughout the whole experiment.
(§2) To study the renal protective activity of Achillea millefolium essential oil (AEO) on CdCl2-induced renal toxicity, rats were randomly divided into four groups (n=8 per group). Control rats were orally administered saline 1 h before injected intraperitoneally (i.p.) with 0.9% NaCl (physiological saline) daily for 5 days. The CdCl2 group was orally administered saline 1 h before injected i.p. with 6.5 mg/kg CdCl2 daily for 5 days. The AEO group was orally administered AEO (200 mg/kg) 1 h before injected with 0.9% NaCl (physiological saline) daily for 5 days. The AEO+CdCl2 group was orally administered AEO (100 mg/kg) 1 h before injected 6.5 mg/kg CdCl2 i.p. daily for 5 days. CdCl2 was dissolved in physiological saline.
(§3) Rats were euthanized (decapitation) 24 hours after the final dosing. The kidneys were dissected, weighed to obtain the weight and then divided into 2 parts. […] The 2nd part was kept at −80° C. for quantitative real-time qRT-PCR.

[2] = Cd concentration in renal tissue by atomic absorption spectrophotometry
Procedure: as §1, §2, §3
The Cd concentrations in renal tissues were estimated as mentioned before. […] The levels of metal were measured by atomic absorption spectrophotometry in a graphite furnace at 228.8 nm. The Cd values are expressed as microgram per gram of wet renal tissue.

[3] = tested on: kidney function biomarkers (BUN, uric acid, creatinine, NAG); test: Kidney function biomarkers in CdCl2-induced renal toxicity
Procedure: as §1, §2
(§4) Rats were euthanized (decapitation) 24 hours after the final dosing. The kidneys were dissected, weighed to obtain the weight and then divided into 2 parts. The 1st part was homogenized in ice-cold 10 mM phosphate buffer (pH 7.4) to produce a 10% (w/v) homogenate for biochemical analysis. The 2nd part was kept at −80° C. for quantitative real-time qRT-PCR.
Biomarkers of kidney function, i.e., Blood urea nitrogen (BUN), uric acid, and creatinine, were evaluated by using specific commercial kits. N-acetyl-β-D-glucosaminidase (NAG) is a marker of tubular toxicity was assessed using ELISA kit.

[4] = tested on: HMGB1, TLR4, MYD88, NFκB gene expression; details: renal
Procedure: as §1, §2, §4
(§5) Gene expression for the TLR pathway, High-mobility group box 1 (HMBG1), Toll-Like Receptor 4 (TLR4), myeloid differentiation primary response gene 88 (MYD88), and Nuclear factor kappa B (NFκB) were quantified via real-time PCR (qPCR) consuming the primers' sequences, shown in Table 1, in agreement with the method described elsewhere. Briefly, RNA was isolated and purified using a Trizol reagent kit (Invitrogen, Carlsbad, CA, USA), then a reverse transcription polymerase chain reaction (RT-PCR) kit (TaKaRa, Kusatsu, Shiga, Japan) to reverse transcription reaction following the manufacturer's procedures. qPCR was applied using a SYBR ExScript RT-PCR kit, and quantification examinations were accomplished via an Opticon-2 Real-time PCR reactor (MJ Research, Capital Court, Reno, NV, USA). qPCR results were obtained using Step PE Applied Biosystems (Waltham, MA, USA) software. Relative gene expression data were calculated as mentioned earlier by the Livak and Schmittgen method (2−^ΔΔCq2) and presented as a fold change.

[5] = tested on: TNF-α, IFN-γ, MCP-1, IL-10; test: Renal inflammatory mediators by ELISA in Cd-induced renal toxicity; details: CdCl2 group vs control
Procedure: as §1, §2, §4
Inflammation markers including interferon gamma (IFN-γ), monocyte chemoattractant protein-1 (MCP-1), tumor necrosis factor alpha (TNF-α), and interleukin 10 (IL-10) were measured using ELISA kits.

MDA, SOD, CAT, GPx, GSH = test: Renal oxidative stress markers in Cd-induced renal toxicity
Procedure: as §1, §2, §4
Lipid peroxidation was assessed according to the amount of malondialdehyde (MDA). The content of reduced glutathione (GSH) was evaluated and the activities of Catalase (CAT), Superoxide dismutase (SOD) and glutathione peroxidase (GPx) were estimated using kits.

[6] = tested on: Caspase 3, Caspase 9, Bax, Bcl2; details: CdCl2 renal injury vs control
Procedure: as §1, §2, §4, §5
The actions of AEO administration on the apoptotic markers, such as caspase-3 and caspase 9 were evaluated.

[7] = CdCl2 group: CdCl2 6.5 mg/kg i.p. daily 5 days, mean ± SD
[8] = Cd experienced animals vs control
[9] = renal, CdCl2 administered rats vs control

For `[Cl][Cd][Cl]` [CdCl2], which “kidney weight (in words)” value ([1]; CdCl2 group vs control) is on record?
The value was “reduction in kidney weight”.

What about the Kidney wt. [1, 7] of the same compound?
The Kidney wt. was 1.43 ± 0.11 g.

And the “Cd concentration in renal tissue (in words)” value ([2]; CdCl2 group vs control)?
Its value is “significantly increased”.

What about the Cd concentration [2, 7] of the same compound?
The Cd concentration was 0.95 ± 0.01 μg/g renal tissue.

And the “BUN level (in words)” value ([3]; Cd-exposed rats vs control)?
Its value is “increases”.

What about the “serum creatinine level (in words)” value ([3]; Cd-exposed rats vs control) of the same compound?
Its value is “increases”.

And the “uric acid level (in words)” value ([3]; Cd-exposed rats vs control)?
Its value is “increases”.

What about the BUN [3, 7] of the same compound?
The BUN was 40.66 ± 3.15 mg/dL.

And the NAG [3, 7]?
The NAG was 33.2 ± 6.8 mIU/ml.

And the Uric acid [3, 7]?
The Uric acid was 4.54 ± 0.15 mg/dL.

And the Creatinine ([3]; serum, CdCl2 group: CdCl2 6.5 mg/kg i.p. daily 5 days, mean ± SD)?
Its Creatinine is 0.68 ± 0.01 mg/dL.

And the “HMGB1 mRNA expression level” value ([4]; Cd administered rats vs control)?
The value was “increased”.

What about the “MYD88 mRNA expression” value [4, 8] of the same compound?
The value was “amplified significantly”.

And the “TLR4 mRNA expression” value [4, 8]?
The value was “amplified significantly”.

What about the “nuclear NFκB p65 level” value ([4]; Cd group vs control) of the same compound?
The value was “significantly augmented”.

What about the IFN-γ renal level [5] of the same compound?
Its IFN-γ renal level is “amplified”.

And the MCP-1 renal level [5]?
The MCP-1 renal level was “amplified”.

And the TNF-α renal level [5]?
The TNF-α renal level was “amplified”.

What about the IL-10 level ([5]; renal) of the same compound?
The IL-10 level was “declined”.

What about the “renal GSH content” value (MDA, SOD, CAT, GPx, GSH; CdCl2 group vs control) of the same compound?
Its value is “obvious reduction”.

What about the CAT activity (MDA, SOD, CAT, GPx, GSH; [9]) of the same compound?
Its CAT activity is “considerably declined”.

What about the GPx activity (MDA, SOD, CAT, GPx, GSH; [9]) of the same compound?
The GPx activity was “considerably declined”.

What about the SOD activity (MDA, SOD, CAT, GPx, GSH; [9]) of the same compound?
The SOD activity was “considerably declined”.

What about the “MDA level (lipid peroxidation)” value (MDA, SOD, CAT, GPx, GSH; renal, CdCl2 group vs control) of the same compound?
Its value is “augmented”.

And the “caspase 3 renal content” value [6]?
The value was “augmented”.

What about the “caspase 9 renal content” value [6] of the same compound?
The value was “augmented”.

What about the Bax gene expression ([6]; renal) of the same compound?
Its Bax gene expression is “augmented”.

What about the Bcl2 gene expression ([6]; renal) of the same compound?
The Bcl2 gene expression was “diminished”.
